This is an account of results in BindingDB's records for patent US20260060961 (Jazz Pharmaceuticals Ireland, 2026).

In the assay the target is GTPase KRas [G12C] (Homo sapiens, UniProt P01116, G12C). The experiment in a line: HTRF Nucleotide Exchange Assay. On the procedure:
The capacity of compounds to bind KRAS G12C and KRAS wildtype was quantified using a HTRF nucleotide exchange assay. Recombinant human KRAS protein (5 nM; aa1-188 KRAS WT or KRAS containing the G12C amino acid substitution, an N-terminal 6×His-tag and leader sequence), and 2 nM Europium-labeled anti-6×His antibody were mixed in assay buffer (10 mM HEPES pH7.3, 75 mM NaCl, 5 mM MgCl2, 0.05% BSA, 0.0025% NP-40 and 100 mM KF) with various concentrations of compound in a 384-well plate and a volume of 5 μL. After a 180 minute incubation at room temperature, 5 μl of 200 nM EDA-GTP-DY647P1 diluted in assay buffer was added to the plate. Following 30-minute incubation at room temperature, time-resolved fluorescence was measured on a PerkinElmer Envision plate reader. DMSO (0.3%) and unlabeled GDP (1 μM) or equivalent tool compound were used to generate the Max and Min assay signals, respectively. Data was analysed using a four-parameter logistic model to calculate IC50 values, with at least two independent replicates were performed for each compound.

Each structure is given as a SMILES string.

GTPase KRas [G12C], sequence (P01116 whole entry G12C, the tested form may be a part): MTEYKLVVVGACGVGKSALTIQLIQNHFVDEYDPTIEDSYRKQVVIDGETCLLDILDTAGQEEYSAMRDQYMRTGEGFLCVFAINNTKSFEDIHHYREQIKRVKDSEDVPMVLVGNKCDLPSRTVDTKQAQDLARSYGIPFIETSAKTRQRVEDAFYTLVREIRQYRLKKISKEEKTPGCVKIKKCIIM

Regarding `C=CC(=O)N1CC2(CC(c3nc(-c4ccc(OCC(=O)N5CCOCC5)cc4)c(-c4cc(O)cc5ccccc45)n3C)C2)C1` [US20260060961, Example 29], the IC50 was under 1 µM.

As for `C=CC(=O)N1CC2(CC(c3nc(-c4ccc5c(cnn5C)c4)c(-c4cccc5ccccc45)n3C)C2)C1` [US20260060961, Example 34], the IC50 is over 10 µM.
